System: 996289-038-R-J1-PDC complex spheroid viability
Test: Anticancer human tumor 996289-038-R-J1-PDC patient-derived colon adenocarcinoma cell line growth inhibition [CLK]
Conditions: for IC50: curve of first compound; for viability, T/C: stronger effect = lower value
Method in brief: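 Patient-derived tumor cells grown as complex spheroids with HUVEC endothelial cells and mesenchymal stem cells, treated with drug combinations. Concentrations descend in half-log steps from near clinical Cmax, or from 10 microM if Cmax unknown.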

[1] = second compound 0.0316 µM, first compound 0.0316 µM
[2] = second compound 0.0316 µM, first compound 0.1 µM
[3] = second compound 0.0316 µM, first compound 0.316 µM
[4] = second compound 0.0316 µM, first compound 1 µM
[5] = second compound 0.1 µM, first compound 0.0316 µM
[6] = second compound 0.1 µM, first compound 0.1 µM
[7] = second compound 0.1 µM, first compound 0.316 µM
[8] = second compound 0.1 µM, first compound 1 µM
[9] = second compound 0.316 µM, first compound 0.0316 µM
[10] = second compound 0.316 µM, first compound 0.1 µM
[11] = second compound 0.316 µM, first compound 0.316 µM
[12] = second compound 0.316 µM, first compound 1 µM
[13] = second compound 1 µM, first compound 0.0316 µM
[14] = second compound 1 µM, first compound 0.1 µM
[15] = second compound 1 µM, first compound 0.316 µM
[16] = second compound 1 µM, first compound 1 µM
[17] = second compound 3.16 µM, first compound 0.0316 µM
[18] = second compound 3.16 µM, first compound 0.1 µM
[19] = second compound 3.16 µM, first compound 0.316 µM
[20] = second compound 3.16 µM, first compound 1 µM
[21] = second compound 10 µM, first compound 0.0316 µM
[22] = second compound 10 µM, first compound 0.1 µM
[23] = second compound 10 µM, first compound 0.316 µM
[24] = second compound 10 µM, first compound 1 µM
[25] = second compound 0.0316 µM, first compound 3.16 µM
[26] = second compound 0.0316 µM, first compound 10 µM
[27] = second compound 0.1 µM, first compound 3.16 µM
[28] = second compound 0.1 µM, first compound 10 µM
[29] = second compound 0.316 µM, first compound 3.16 µM
[30] = second compound 0.316 µM, first compound 10 µM
[31] = second compound 1 µM, first compound 3.16 µM
[32] = second compound 1 µM, first compound 10 µM
[33] = second compound 3.16 µM, first compound 3.16 µM
[34] = second compound 3.16 µM, first compound 10 µM
[35] = second compound 10 µM, first compound 3.16 µM
[36] = second compound 10 µM, first compound 10 µM
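Note: spheroids exposed to the agents for 7 days before readout.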

## COc1c(OCCCN2CCOCC2)ccc2c3n(c(=NC(=O)c4cnc(N)nc4)nc12)CCN3 + CN1CCN(c2cc(C(=O)Nc3cc4cc(-c5cnn(C)c5)ccc4cn3)ccn2)CC1
Second compound 0.0316 µM
  IC50: 74.6 nM
Second compound 0.1 µM
  IC50: 37.7 nM
Second compound 0.316 µM
  IC50: 9.79 nM
Second compound 1 µM
  IC50: < 3.16 nM
Second compound 3.16 µM
  IC50: < 3.16 nM
Second compound 10 µM
  IC50: < 3.16 nM
Second compound 0.0316 µM, first compound 0.00316 µM
  viability, T/C: 87.7%
Second compound 0.0316 µM, first compound 0.01 µM
  viability, T/C: 88.8%
[1]
  viability, T/C: 64.5%
[2]
  viability, T/C: 43.9%
[3]
  viability, T/C: 30.1%
[4]
  viability, T/C: 18.7%
Second compound 0.1 µM, first compound 0.00316 µM
  viability, T/C: 86%
Second compound 0.1 µM, first compound 0.01 µM
  viability, T/C: 66.7%
[5]
  viability, T/C: 56.4%
[6]
  viability, T/C: 33.5%
[7]
  viability, T/C: 24.8%
[8]
  viability, T/C: 13.5%
Second compound 0.316 µM, first compound 0.00316 µM
  viability, T/C: 56.9%
Second compound 0.316 µM, first compound 0.01 µM
  viability, T/C: 50%
[9]
  viability, T/C: 36.3%
[10]
  viability, T/C: 21%
[11]
  viability, T/C: 12.7%
[12]
  viability, T/C: 8.17%
Second compound 1 µM, first compound 0.00316 µM
  viability, T/C: 2.97%
Second compound 1 µM, first compound 0.01 µM
  viability, T/C: 3.06%
[13]
  viability, T/C: 3.03%
[14]
  viability, T/C: 1.3%
[15]
  viability, T/C: 1.59%
[16]
  viability, T/C: 3.21%
Second compound 3.16 µM, first compound 0.00316 µM
  viability, T/C: 0.97%
Second compound 3.16 µM, first compound 0.01 µM
  viability, T/C: 0.95%
[17]
  viability, T/C: 2.68%
[18]
  viability, T/C: 0.71%
[19]
  viability, T/C: 2.1%
[20]
  viability, T/C: 1.27%
Second compound 10 µM, first compound 0.00316 µM
  viability, T/C: 1.28%
Second compound 10 µM, first compound 0.01 µM
  viability, T/C: 0.97%
[21]
  viability, T/C: 0.74%
[22]
  viability, T/C: 0.86%
[23]
  viability, T/C: 0.56%
[24]
  viability, T/C: 0.61%

## Nc1ccn(C2OC(CO)C(O)C2(F)F)c(=O)n1 (stereo unspecified) + CNC(=O)c1ccc(Nc2nc(OC3CCCC3)c3c(-c4ccc5nc(C)oc5c4)c[nH]c3n2)c(OC)c1
Second compound 0.0316 µM
  IC50: > 10000 nM
Second compound 0.1 µM
  IC50: > 10000 nM
Second compound 0.316 µM
  IC50: > 10000 nM
Second compound 1 µM
  IC50: 1230 nM
Second compound 3.16 µM
  IC50: 674 nM
Second compound 10 µM
  IC50: 639 nM
[1]
  viability, T/C: 93.1%
[2]
  viability, T/C: 82.7%
[3]
  viability, T/C: 67.1%
[4]
  viability, T/C: 70%
[25]
  viability, T/C: 65.1%
[26]
  viability, T/C: 56.4%
[5]
  viability, T/C: 108%
[6]
  viability, T/C: 85.3%
[7]
  viability, T/C: 67.9%
[8]
  viability, T/C: 68%
[27]
  viability, T/C: 66.7%
[28]
  viability, T/C: 54.9%
[9]
  viability, T/C: 79.8%
[10]
  viability, T/C: 70.5%
[11]
  viability, T/C: 65.4%
[12]
  viability, T/C: 56.1%
[29]
  viability, T/C: 55.3%
[30]
  viability, T/C: 52.2%
[13]
  viability, T/C: 68.8%
[14]
  viability, T/C: 63.4%
[15]
  viability, T/C: 54.6%
[16]
  viability, T/C: 50%
[31]
  viability, T/C: 48.9%
[32]
  viability, T/C: 41.4%
[17]
  viability, T/C: 65.3%
[18]
  viability, T/C: 54.2%
[19]
  viability, T/C: 52.6%
[20]
  viability, T/C: 49.3%
[33]
  viability, T/C: 47.2%
[34]
  viability, T/C: 36.9%
[21]
  viability, T/C: 61.5%
[22]
  viability, T/C: 57.6%
[23]
  viability, T/C: 48.4%
[24]
  viability, T/C: 49.4%
[35]
  viability, T/C: 46.9%
[36]
  viability, T/C: 35.2%

## CC1COCCN1c1cc(C2(S(C)(=N)=O)CC2)nc(-c2ccnc3[nH]ccc23)n1 (stereo unspecified) + CN1CCN(c2cc(C(=O)Nc3cc4cc(-c5cnn(C)c5)ccc4cn3)ccn2)CC1
Second compound 0.0316 µM
  IC50: > 10000 nM
Second compound 0.1 µM
  IC50: > 10000 nM
Second compound 0.316 µM
  IC50: > 10000 nM
Second compound 1 µM
  IC50: < 31.6 nM
Second compound 3.16 µM
  IC50: < 31.6 nM
Second compound 10 µM
  IC50: < 31.6 nM
[1]
  viability, T/C: 103%
[2]
  viability, T/C: 104%
[3]
  viability, T/C: 98.1%
[4]
  viability, T/C: 103%
[25]
  viability, T/C: 99.2%
[26]
  viability, T/C: 80.8%
[5]
  viability, T/C: 102%
[6]
  viability, T/C: 91.3%
[7]
  viability, T/C: 83.1%
[8]
  viability, T/C: 91.7%
[27]
  viability, T/C: 90.9%
[28]
  viability, T/C: 71%
[9]
  viability, T/C: 71.4%
[10]
  viability, T/C: 70.1%
[11]
  viability, T/C: 69.3%
[12]
  viability, T/C: 62.7%
[29]
  viability, T/C: 66%
[30]
  viability, T/C: 49.9%
[13]
  viability, T/C: 6.36%
[14]
  viability, T/C: 8.03%
[15]
  viability, T/C: 5.79%
[16]
  viability, T/C: 5.93%
[31]
  viability, T/C: 5.27%
[32]
  viability, T/C: 4.07%
[17]
  viability, T/C: 1.36%
[18]
  viability, T/C: 1.15%
[19]
  viability, T/C: 1.45%
[20]
  viability, T/C: 0.91%
[33]
  viability, T/C: 1.03%
[34]
  viability, T/C: 2.2%
[21]
  viability, T/C: 1.62%
[22]
  viability, T/C: 0.34%
[23]
  viability, T/C: 0.65%
[24]
  viability, T/C: 0.65%
[35]
  viability, T/C: 4.11%
[36]
  viability, T/C: 0.52%

— PubChem BioAssay AID2060600 (Molecular Pharmacology Branch, DTP, NCI, 2025)
